Test [1] deals with T1, Beta-secretase (BACE) (Homo sapiens, UniProt Q9Y5Z0+P56817). Briefly: Inhibition of beta-secretase activity. The class given is protein assay.
Test [2] addresses Gamma-secretase subunit PEN-2 (Homo sapiens, UniProt Q9NZ42). Briefly: Inhibition of Amyloid-beta production in APP-transfected cells at level of gamma secretase. It counts as functional, cell-based.
In a further test the target is Beta-secretase 1 (Homo sapiens, UniProt P56817). Briefly: Inhibition of human recombinant beta-secretase.
For test [3], the target named is T1, Beta-secretase (BACE). The experiment in a line: In vitro inhibition of beta-secretase was evaluated. The class given is protein assay.

Structures are written as SMILES. Numbered stars: 1 amine (or outer) side, 2 acyl side, 3 side chain; on linkers, the order of the positions; unused ones are H or OH. Square brackets hold non-standard residues; d marks the D form. Peptide text beside a SMILES is read from it. * marks the point of attachment. X1 = CC(C)C[C@H](N[*:1])C(O)C[C@@H](C)C(=O)[*:2]; X2 = C[C@H](N[*:1])C(=O)C(F)(F)C(=O)[*:2]; Sta = CC(C)C[C@H](N)[C@@H](O)CC(=O)O; Nva = CCC[C@H](N)C(=O)O; Cbz = O=C(OCc1ccccc1)*; Boc = CC(C)(C)OC(=O)*

The source of these data is ChEMBL document CHEMBL1134505, “Secretase targets for Alzheimer's disease: identification and therapeutic potential” (J Med Chem, 2001).

Chain of Gamma-secretase subunit PEN-2 (Q9NZ42 whole entry): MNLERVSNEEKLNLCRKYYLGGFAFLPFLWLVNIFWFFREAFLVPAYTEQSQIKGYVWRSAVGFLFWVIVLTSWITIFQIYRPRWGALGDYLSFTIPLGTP
Chain of Beta-secretase 1 (P56817 whole entry): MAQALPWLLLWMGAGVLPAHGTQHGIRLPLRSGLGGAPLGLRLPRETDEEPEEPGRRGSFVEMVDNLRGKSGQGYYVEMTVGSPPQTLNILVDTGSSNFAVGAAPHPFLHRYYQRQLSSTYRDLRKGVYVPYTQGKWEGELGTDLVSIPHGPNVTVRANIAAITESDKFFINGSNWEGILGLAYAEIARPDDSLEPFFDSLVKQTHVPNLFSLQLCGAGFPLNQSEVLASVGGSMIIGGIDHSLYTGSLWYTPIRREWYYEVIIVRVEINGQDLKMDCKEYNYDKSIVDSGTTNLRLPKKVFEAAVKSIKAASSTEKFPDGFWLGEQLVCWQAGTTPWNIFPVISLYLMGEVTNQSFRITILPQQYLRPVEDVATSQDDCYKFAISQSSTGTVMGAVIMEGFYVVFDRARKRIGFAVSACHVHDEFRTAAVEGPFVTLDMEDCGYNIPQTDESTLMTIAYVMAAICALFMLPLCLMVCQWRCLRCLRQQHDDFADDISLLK

Broadly, the IC50 is the concentration at which inhibition is half-maximal. At Beta-secretase (BACE) [1], `CC(C)C[C@H](NC(=O)[C@H](Cc1ccccc1)C[C@@H](O)[C@H](Cc1ccccc1)NC(=O)OC(C)(C)C)C(=O)N[C@@H](Cc1ccccc1)C(N)=O` had an IC50 of 0.3 µM. `CCC[C@@H](C=O)NC(=O)[C@H](CC(C)C)NC(=O)[C@H](CC(C)C)NC(C)=O` (Ac-Leu-Leu-[Nva]-aldehyde) displayed a half-maximal inhibitory concentration (IC50) in test [2] of 200 µM. On the same count and under the same terms, the same measure for `CC[C@H](C)[C@H](NC(=O)[C@@H](NC(=O)OC(C)(C)C)C(C)C)C(=O)N[C@@H](C)C(=O)C(F)(F)C(=O)N[C@H](C(=O)N[C@H](C(=O)OC)[C@@H](C)CC)C(C)C` (Boc-VI[X2]VI-OMe): 13 µM; for `CCC[C@@H](C=O)NC(=O)[C@H](CC(C)C)NC(=O)OCc1ccccc1` (Cbz-Leu-[Nva]-aldehyde): 200 µM. A word on the Ki: it is the dissociation constant of the complex between target and ligand, obtained from inhibition or displacement. On to `CC(C)C[C@H](NC(=O)[C@H](CC(N)=O)NC(=O)[C@@H](NC(=O)[C@@H](N)CC(=O)O)C(C)C)C(O)C[C@@H](C)C(=O)N[C@@H](C)C(=O)N[C@@H](CCC(=O)O)C(=O)N[C@@H](Cc1ccccc1)C(=O)O` (stereo partly drawn) (H-DVN[X1]AEF-OH), for which, on Beta-secretase 1, the Ki worked out at 0.01 µM.

In turn, `CC[C@H](C)[C@H](NC(=O)[C@H](CCC(=O)O)NC(=O)[C@H](CCC(=O)O)NC(=O)[C@@H](NC(=O)[C@@H](N)CCCCN)[C@@H](C)O)C(=O)N[C@@H](CO)C(=O)N[C@@H](CCC(=O)O)C(=O)N[C@H](C(=O)N[C@@H](CC(N)=O)C(=O)N[C@@H](CC(C)C)[C@@H](O)CC(=O)N[C@H](C(=O)N[C@@H](C)C(=O)N[C@@H](CCC(=O)O)C(=O)N[C@@H](Cc1ccccc1)C(=O)O)C(C)C)C(C)C` (H-KTEEISEVN[Sta]VAEF-OH) had an IC50 on Beta-secretase (BACE) [3] of 0.03 µM.

Take `CC(C)C[C@H](NC(=O)[C@H](CC(N)=O)NC(=O)[C@@H](N)C(C)C)C(O)C[C@@H](C)C(=O)N[C@@H](C)C(=O)N[C@@H](CCC(=O)O)C(=O)N[C@@H](Cc1ccccc1)C(=O)O` (stereo partly drawn) (H-VN[X1]AEF-OH): the inhibitory constant (Ki) at Beta-secretase 1 amounted to 0.068 µM. As to `CC(C)C[C@@H](C=O)NC(=O)[C@H](CC(C)C)NC(=O)[C@H](CC(C)C)NC(=O)OCc1ccccc1` [MG-132] (Cbz-Leu-Leu-Leu-aldehyde), the 50% inhibitory concentration (IC50) in test [2] came to 200 µM.
